Measured values taken from patent US7745576B2, “Polypeptides having antimicrobial activity and polynucleotides encoding same” (Novozymes Adenium Biotech A/S, priority 2005, dated 2010).

What was measured:
Type in all cases: cell-based
[1] = tested on: Trichophyton mentagrophytes DSM 4870; test: MIC against clinical fungi, PD broth dilution; conditions: 25-27° C., approximately 40 hours
Experimental: (§1) Minimal inhibitory concentrations of Arenicin against yeasts and fungi were determined essentially as described by NCCLS/CLSI (clinical and laboratory standards institute).
(§2) In summary, fungal or yeasts suspension of approximately 1 McFarland unit was diluted 1:100 in PD broth (8 g/L potato dextrose) and growth was assayed against serial 2-fold dilutions of Arenicin (0.03-32 micrograms/mL). Assay plates were incubated at 25-27° C. for Candida albicans, Candida tropicalis, Cryptococcus neoformans, Trichophyton mentagrophytes and Epidermophyton floccosum, and at 30° C. for Candida glabrata, Pichia pastoris, Saccharomyces cerevisiae and Aspergillus niger. Growth was recorded visually (naked eye, oblique illumination) after approximately 40 hours of incubation.

[2] = tested on: Candida glabrata DSM 11226; test: MIC against clinical fungi, PD broth dilution; conditions: 30° C., approximately 40 hours
Experimental: as §1, §2

[3] = tested on: Saccharomyces cerevisiae DSM 1333; test: MIC against clinical fungi, PD broth dilution; conditions: 30° C., approximately 40 hours
Experimental: as §1, §2

[4] = tested on: Cryptococcus neoformans DSM 11959; test: MIC against clinical fungi, PD broth dilution; conditions: 25-27° C., approximately 40 hours
Experimental: as §1, §2

[5] = tested on: Candida albicans ATCC 28517; test: MIC against clinical fungi, PD broth dilution; conditions: 25-27° C., approximately 40 hours
Experimental: as §1, §2

[6] = tested on: Candida tropicalis DSM 11953; test: MIC against clinical fungi, PD broth dilution; conditions: 25-27° C., approximately 40 hours
Experimental: as §1, §2

[7] = tested on: Candida albicans ATCC 18804; test: MIC against clinical fungi, PD broth dilution; conditions: 25-27° C., approximately 40 hours
Experimental: as §1, §2

[8] = tested on: Pichia pastoris ATCC 201178; test: MIC against clinical fungi, PD broth dilution; conditions: 30° C., approximately 40 hours
Experimental: as §1, §2

[9] = tested on: Candida albicans ATCC 10231; test: MIC against clinical fungi, PD broth dilution; conditions: 25-27° C., approximately 40 hours
Experimental: as §1, §2

[10] = tested on: Aspergillus niger ATCC9642; test: MIC against clinical fungi, PD broth dilution; conditions: 30° C., approximately 40 hours
Experimental: as §1, §2

[11] = tested on: Pichia pastoris ATCC 20864; test: MIC against clinical fungi, PD broth dilution; conditions: 30° C., approximately 40 hours
Experimental: as §1, §2

[12] = tested on: Stenotrophomonas maltophlila ATCC 13637; test: MIC, NCCLS/CLSI M7-A6 dilution susceptibility test; conditions: average of two independent evaluations
Experimental: (§3) The antimicrobial peptide shown as amino acids 1 to 21 of SEQ ID NO: 2 was prepared synthetically. The Minimal Inhibitory Concentration (MIC) was determined to test for the antimicrobial activity of Arenicin following the NCCLS guidelines from CLSI (Clinical and Laboratory Standards Institute; formerly known as National Committee for Clinical and Laboratory Standards)—protocol M7-A6, Vol. 20, No. 2: Methods for Dilution Antimicrobial Susceptibility Tests for Bacteria That Grow Aerobically.
(§4) The antimicrobial peptide of the invention was tested against 12 bacterial strains obtained from the American Type Culture Collection (ATCC). The results in Table 1 are average values of two independent evaluations.

[13] = tested on: Enterobacter cloacae ATCC 13047; test: MIC, NCCLS/CLSI M7-A6 dilution susceptibility test; conditions: average of two independent evaluations
Experimental: as §3, §4

[14] = tested on: Pseudomonas aeruginosa ATCC 27853; test: MIC, NCCLS/CLSI M7-A6 dilution susceptibility test; conditions: average of two independent evaluations
Experimental: as §3, §4

[15] = tested on: Shigella sonnei ATCC 11060; test: MIC, NCCLS/CLSI M7-A6 dilution susceptibility test; conditions: average of two independent evaluations
Experimental: as §3, §4

[16] = tested on: Moraxella catarrhalis ATCC 25238; test: MIC, NCCLS/CLSI M7-A6 dilution susceptibility test; conditions: average of two independent evaluations
Experimental: as §3, §4

[17] = tested on: Aeromonas salmonicida ATCC 14174; test: MIC, NCCLS/CLSI M7-A6 dilution susceptibility test; conditions: average of two independent evaluations
Experimental: as §3, §4

[18] = tested on: Citrobacter freundii ATCC 8090; test: MIC, NCCLS/CLSI M7-A6 dilution susceptibility test; conditions: average of two independent evaluations
Experimental: as §3, §4

[19] = tested on: Escherichia coli ATCC 25922; test: MIC, NCCLS/CLSI M7-A6 dilution susceptibility test; conditions: average of two independent evaluations
Experimental: as §3, §4

[20] = tested on: Acinetobacter iwoffii ATCC 15309; test: MIC, NCCLS/CLSI M7-A6 dilution susceptibility test; conditions: average of two independent evaluations
Experimental: as §3, §4

[21] = tested on: Pseudomonas aeruginosa ATCC 9027; test: MIC, NCCLS/CLSI M7-A6 dilution susceptibility test; conditions: average of two independent evaluations
Experimental: as §3, §4

[22] = tested on: Enterobacter aerogenes ATCC 13048; test: MIC, NCCLS/CLSI M7-A6 dilution susceptibility test; conditions: average of two independent evaluations
Experimental: as §3, §4

[23] = tested on: Escherichia coli ATCC 25404; test: MIC, NCCLS/CLSI M7-A6 dilution susceptibility test; conditions: average of two independent evaluations
Experimental: as §3, §4

“Arenicin: antimicrobial polypeptide shown as amino acids 1 to 21 of SEQ ID NO: 2 (Arenicola marina), prepared synthetically (MGYSMNIALVYATVLIGVLHV; listed as Arenicola marina)” gave an MIC [1] of 8 micrograms/mL, an MIC [2] of 16 micrograms/mL and an MIC [3] of 8 micrograms/mL. It also gave an MIC [4] of 1 microgram/mL, an MIC [5] of 8 micrograms/mL and an MIC [6] of 2 micrograms/mL. The MIC [7] was 8 micrograms/mL, the MIC [8] was 4 micrograms/mL and the MIC [9] was 4 micrograms/mL. The MIC [10] was 8 micrograms/mL, the MIC [11] was 2 micrograms/mL and the MIC [12] was 1 microgram/mL. For the same substance, the MIC [13] was 1 microgram/mL, the MIC [14] was 0.5 microgram/mL and the MIC [15] was 0.5 microgram/mL. For the same substance, the MIC [16] was under 0.06 microgram/mL, the MIC [17] was 2 micrograms/mL and the MIC [18] was 1 microgram/mL. It also gave an MIC [19] of 0.25 microgram/mL, an MIC [20] of 0.25 microgram/mL and an MIC [21] of 1 microgram/mL. It also gave an MIC [22] of 1 microgram/mL and an MIC [23] of 0.5 microgram/mL.
